Key:
RNF114 = molecular target: T1, RNF114 (Homo sapiens, UniProt Q9Y508); assay: fluorescence polarization; type: binding; settings: labelled compound; unreliable (estimated, saturation not reached); pH 7.4, 150 mM NaCl, 0.1 mg/mL BSA, 1 mM TCEP, 22 °C
T1 construct: full-length RNF114, N-terminal His-3C fusion (pOPIN-B), expressed in E. coli Rosetta; cobalt resin and gel filtration

[1] = molecular target: T2, AF1521 macrodomain (GST-AF1521) (Archaeoglobus fulgidus, UniProt O28751); assay: fluorescence polarization; settings: labelled compound; pH 7.4, 150 mM NaCl, 0.1 mg/mL BSA, 1 mM TCEP, 22 °C; one-site total binding fit
T2 construct: gene AF_1521; GST-AF1521 plasmid (gift from M. Nielsen), purified as previously reported
T2 sequence (O28751 1-192): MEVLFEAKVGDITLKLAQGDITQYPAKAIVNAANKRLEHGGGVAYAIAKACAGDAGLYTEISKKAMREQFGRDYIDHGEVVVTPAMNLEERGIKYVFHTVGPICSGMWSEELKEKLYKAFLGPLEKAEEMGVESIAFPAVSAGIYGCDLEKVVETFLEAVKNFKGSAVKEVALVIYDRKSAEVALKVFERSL

T1 sequence (Q9Y508 whole entry, the tested form may be a part): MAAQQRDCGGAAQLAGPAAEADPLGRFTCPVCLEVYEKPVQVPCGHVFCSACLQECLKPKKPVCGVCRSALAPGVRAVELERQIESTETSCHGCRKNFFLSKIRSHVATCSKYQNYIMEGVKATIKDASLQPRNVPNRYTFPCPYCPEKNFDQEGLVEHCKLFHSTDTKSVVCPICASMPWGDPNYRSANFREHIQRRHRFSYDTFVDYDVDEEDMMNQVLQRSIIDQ

- Kd (RNF114): ~ 40 µM
- Kd [1]: 1200 nM
Substance: ADPr^T
